Earlier results on 9 compounds are cited in US9198988B2, “Nanoparticulate manganese MRI contrast agents” (Kent State University, priority 2011, dated 2015).

The conditions of series [1]: commercial MRI contrast agents.
The conditions of series [2]: commercial MRI contrast agents. This is another data set of the same source.

As for `O=C([O-])CN1CCN(CC(=O)[O-])CCN([C@H](CO)[C@H](O)CO)CCN(CC(=O)[O-])CC1.[Gd+3]` (racemic) [Gadovist ®], the “r1 (relaxivity)” value in series [1] was 5.3 mM⁻¹ s⁻¹. Also, the “LogKGdL (stability constant)” value in series [2] is recorded as 20.8.
On to `CNC[C@H](O)[C@@H](O)[C@H](O)[C@H](O)CO.O=C([O-])CN1CCN(CC(=O)[O-])CCN(CC(=O)O)CCN(CC(=O)[O-])CC1.[Gd+3]` [Dotarem ®], for which the “r1 (relaxivity)” value in series [1] was 4.2 mM⁻¹ s⁻¹. Also, the “LogKGdL (stability constant)” value in series [2] is 25.3.
As to `CNC[C@H](O)[C@@H](O)[C@H](O)[C@H](O)CO.CNC[C@H](O)[C@@H](O)[C@H](O)[C@H](O)CO.O=C([O-])CN(CCN(CC(=O)[O-])CC(=O)O)CCN(CC(=O)[O-])CC(=O)O.[Gd+3]` [Magnevist ®], the “r1 (relaxivity)” value in series [1] was 4.3 mM⁻¹ s⁻¹. In addition, the “LogKGdL (stability constant)” value in series [2] is 22.2.
As to `CNC[C@H](O)[C@@H](O)[C@H](O)[C@H](O)CO.CNC[C@H](O)[C@@H](O)[C@H](O)[C@H](O)CO.O=C([O-])CN(CCN(CC(=O)[O-])CC(=O)O)CCN(CC(=O)O)C(COCc1ccccc1)C(=O)[O-].[Gd+3]` (centres unmarked) [MultiHance], in series [1], the “r1 (relaxivity)” value is 6.7 mM⁻¹ s⁻¹. In addition, in series [2], the “LogKGdL (stability constant)” value is 18.4.
`CNC(=O)CN(CCN(CCN(CC(=O)[O-])CC(=O)NC)CC(=O)[O-])CC(=O)[O-].[Gd+3]` [Omniscan ®]: the “r1 (relaxivity)” value in series [1] is 4.6 mM⁻¹ s⁻¹. Also, the “LogKGdL (stability constant)” value in series [2] is reported as 16.8.
`COCCNC(=O)CN(CCN(CCN(CC(=O)[O-])CC(=O)NCCOC)CC(=O)[O-])CC(=O)[O-].[Gd+3]` [OptiMARK]: in series [1], the “r1 (relaxivity)” value was 5.2 mM⁻¹ s⁻¹. For the same compound, in series [2], the “LogKGdL (stability constant)” value is 16.8.
In the case of `CCOc1ccc(CC(CN(CCN(CC(=O)[O-])CC(=O)[O-])CC(=O)[O-])N(CC(=O)[O-])CC(=O)[O-])cc1.[Gd+3].[Na+].[Na+]` (centres unmarked) [Primovist], the “r1 (relaxivity)” value in series [1] was 7.3 mM⁻¹ s⁻¹. Also, the “LogKGdL (stability constant)” value in series [2] is listed as 23.5.
`CC(O)CN1CCN(CC(=O)[O-])CCN(CC(=O)[O-])CCN(CC(=O)[O-])CC1.[Gd+3]` (centres unmarked) [ProHance ®]: in series [1], the “r1 (relaxivity)” value was 4.4 mM⁻¹ s⁻¹.
As to `O=C([O-])CN(CCN(CC(=O)[O-])CC(COP(=O)([O-])OC1CCC(c2ccccc2)(c2ccccc2)CC1)N(CC(=O)[O-])CC(=O)[O-])CC(=O)[O-].[Gd+3].[Na+].[Na+].[Na+]` (centres unmarked) [Vasovist], the “r1 (relaxivity)” value in series [1] is 19 mM⁻¹ s⁻¹. Also, in series [2], the “LogKGdL (stability constant)” value is on record as 23.2.
